Test results from patent publication EP0497399A1, “Process for evaluating skin irritancy” (THE PROCTER & GAMBLE COMPANY, priority 1991, dated 1992).
≈ marks a conversion by molar mass, not a printed value. Where two headings read alike, the source gives them in different places. Marks after values point to notes of the source that are not given here.

Experiments:
HuF cells = format: cell-based, human
Method: Human neonatal fibroblasts are grown in Dulbecco's Modified Eagles Medium (DMEM) supplemented with 10% Fetal Bovine Serum (FBS) (provided by Marrow-Tech). This maintenance medium is the same formulation as described for the above co-cultures with the substitution of 10% FBS for the 2% Ultroser-G medium. Twenty-four hours prior to treatment fibroblasts are trypsinized (Gibco, Trypsin EDTA, Catalog #610-5200AG) by placing 2 ml of 0.25% trypsin over PBS washed cells. After about 1 minute the trypsin is aspirated and cells observed microscopically for rounding up and release from the culture dish. […]
In preliminary experiments with HuK/F co-cultures, two vital dye assays measuring cell viability can be used. […] The MTT assay quantitates the reduction and subsequent trapping of a yellow tetrazolium dye which is reduced by the electron transport chain of functional mitochondria to a purple formazan dye. […] The meshes are removed from the culture well and extraction solvent mixed by stirring before aliquoting for absorbance readings. The absorbance of each extract is read at 540 nm on a Biotek EL-312 (96 well) spectrophotometer. • 2. The Neutral Red Bioassay is described in Borenfreund, E., and Puerner, J., A Simple Quantitative Procedure Using Monolayer Cultures for Cytotoxicity Assays (HTD/NR-90), J. Tissue Cult. […] The cells are evaluated using the standard neutral red assay methodology. […]

[1] = MTT assay of cell viability in human skin cell co-cultures on nylon mesh; format: cell-based; details: human, huk/f skin cell co-culture
Method: (§4) The MTT assay measures the reduction of a tetrazolium dye by electron transport in mitochondria of viable cells, and subsequent intracellular trapping of the formazan product. • 1. […] It is a measure of cell viability, and is performed on all treatment meshes immediately following medium collection. The MTT assay quantitates the reduction and subsequent trapping of a yellow tetrazolium dye which is reduced by the electron transport chain of functional mitochondria to a purple formazan dye. Briefly, MTT (3-[4,5-Dimethylthiazol-2yl]-2,5-diphenyltetrazolium bromide; Sigma Catalog #M-2128) powder is diluted in cell culture medium (0.5 mg./ml.) and pre-warmed to 37 °C before use. One ml of this dye solution is aliquoted onto each mesh, and the meshes are then incubated 3 hours at 37 °C and 5% CO₂. After incubation, the MTT is aspirated, and 2 ml. of pure isopropanol is used to extract the reduced dye for two hours at room temperature. The meshes are removed from the culture well and extraction solvent mixed by stirring before aliquoting for absorbance readings. The absorbance of each extract is read at 540 nm on a Biotek EL-312 (96 well) spectrophotometer. • 2.

in vitro = details: human, keratinocyte monolayer
Source text: The human keratinocyte monolayer cultures (available from Clonetics) were characterized using a fluorescein-labeled anti-cytokeratin antibody that stained the cytoskeleton of keratinocytes preferentially. This stain confirms that the cells are epithelial in nature.

HuK cells = format: cell-based, human
Method: Human neonatal foreskin keratinocytes are grown in keratinocyte growth medium-KGM complete with epidermal growth factor, insulin, hydrocortisone, anti-microbial agents and supplemented with bovine pituitary extract. (This medium is available from Clonetics). Cultures are maintained in a humidified atmosphere at 37 °C and 5% carbon dioxide throughout the experiment. Four days prior to treatments keratinocytes are trypsinized and subcultured. KGM medium is used and Clonetics reagents and methods used as per their standard protocol. Cells are plated at a density of about 33,000/ well in a 24 well Corning culture plate.
In preliminary experiments with HuK/F co-cultures, two vital dye assays measuring cell viability can be used. […] The MTT assay quantitates the reduction and subsequent trapping of a yellow tetrazolium dye which is reduced by the electron transport chain of functional mitochondria to a purple formazan dye. […] The meshes are removed from the culture well and extraction solvent mixed by stirring before aliquoting for absorbance readings. The absorbance of each extract is read at 540 nm on a Biotek EL-312 (96 well) spectrophotometer. • 2. The Neutral Red Bioassay is described in Borenfreund, E., and Puerner, J., A Simple Quantitative Procedure Using Monolayer Cultures for Cytotoxicity Assays (HTD/NR-90), J. Tissue Cult. […]

HuK/F cultures [2] = assay: MTT assay of cell viability in human skin cell co-cultures on nylon mesh; format: cell-based
Method: as §4

HuK/F cultures [3] = assay: Lactate dehydrogenase release into culture medium (cytotoxicity); format: cell-based, human; details: 48 hours
Method: (§1) For each HuK/F experiment, on a 24 well plate, 1 test material is evaluated at 4 concentrations (in quadruplicate wells per each concentration). In addition, 4 wells serve as medium control, and 4 wells as sodium dodecyl sulfate positive control. For each material evaluated, a dose-range finding study is performed at 0.001, 0.01, 0.1 and 1.0% (w/v) concentrations to determine the concentration eliciting minimum and maximum cytotoxicity in the MTT assay of cell viability. Based on the dose-range finding study, a range of test material concentrations is selected to determine the concentration eliciting minimum and maximum cytotoxicity in the MTT assay of cell viability. Based on the dose-range finding study, concentrations are selected at the maximal cytoxicity level and minimum level and at two 1/3 log intervals between these concentrations (e.g., if the maximum cytoxicity was at 1% with no cytotoxicity or cell death at 0.1% the concentrations evaluated subsequently would be 0.1, 0.3, 0.6 and 1%).
(§2) On treatment day, growth medium is aseptically aspirated, and the cell meshes are treated with two ml of test medium per well. Medium alone served as a no treatment control with 0.01% sodium dodecyl sulfate acting as a positive control (n=4 wells/group). All test plates are incubated at 37 °C and 5% carbon dioxide for 4 to 72 hours. Observations are made (e.g. changes in medium color) during the treatment period.
(§3) • 1. Place one untreated, precut mesh (no cells) into one or more wells to determine the background non-specific binding (NSB) of MTT to mesh and to act as absolute blank. In remaining wells place 1 mesh per well of the fibroblast/keratinocyte co-cultures. Add 2 ml of the assay medium which is supplied with the test kit. (Marrow-Tech supplies a medium). • 2. Remove medium from each well and add 2 ml/well of test agent diluted in assay medium. Refeed untreated control mesh and mesh without cells with assay medium. • 3. Incubate 48 hours at 37 °C in 5%. carbon dioxide atmosphere. • 4. Prepare a solution of 0.5 mg/ml MTT (Sigma Chemical Co. Catalog #M-2128) in assay medium. Centrifuge MTT/medium for 5 minutes at 3000 RPM to pellet undissolved crystals, then prewarm MTT in a 37 °C waterbath. • 5. Remove spent medium. Use 1 ml aliquot to analyze for lactate dehydrogenase and N-acetylglucosaminidase release and glucose; 1 ml can be saved under nitrogen at -70 °C for PGE2 analysis at a later time. • 6. Add 1 ml/well MTT/medium solution. Add medium without MTT to absolute blank well. Incubate cultures at 37 °C, 5% carbon dioxide for 3 hours. • 7. Remove MTT/medium and wash each mesh 2 times with 1 ml Dulbecco's phosphate buffered saline with calcium and magnesium (PBS). About 2-5 minutes each wash. • 8. Remove second PBS wash and add 2 ml isopropanol/well at room temperature 2 hours. This will extract the formazan from mitochondria of cells into the supernatant. (Note: the amount of MTT taken up by a cell culture and subsequently released by solvent extraction is proportional to the number of viable cells within the culture). Remove meshes from test well and stir on shaking vortex mixer. • 9. Transfer 200 microliter aliquots of the blue spent solvent from each well to a 96 well microtiter plate and read absorbance at 540 nm blanking to absolute blank (well not exposed to the MTT). The wells containing the NSB meshes should be subtracted from the test well absorbances before performing calculations below.

HuK/F cultures [4] = assay: N-acetylglucosaminidase release into culture medium (cytotoxicity); format: cell-based, human; details: 48 hours
Method: as §1, §2, §3

[5] = human, huk/f skin cell co-culture, 48 h

CCCCCCCCCCCCOS(=O)(=O)[O-].[Na+] [Sodium Dodecyl Sulfate]
more sensitive than HuK/F cultures (decrease in cell viability, NR assay) (HuF cells): about 10 fold
CC50 at 48 h ([1]; concentration w/v giving 50% decrease in MTT dye uptake vs untreated control, HuK/F, 48 hours, read-out: MTT-50 Endpoint (Concentration w/v)): 57 µg/mL
fold induction at 48 h (in vitro): ~2.5
more sensitive than HuK/F cultures (decrease in cell viability, NR assay) (HuK cells): about 10 fold

Ammonium Coconut Alkyl Ethoxylate 12 Sulfate [NH4CNAE12S]
MTT-50 Endpoint (Concentration w/v) (HuK/F cultures [2]; [5]): 0.025%

Ammonium Coconut Alkyl Ethoxylate 6.5 Sulfate [NH4CNAE6.5S]
MTT-50 Endpoint (Concentration w/v) (HuK/F cultures [2]; [5]): 0.019%

CCCCCCCC/C=C\CCCCCCCC(=O)OCCOCC(OCCO)C1OCC(OCCO)C1OCCO (stereo not drawn) [Tween 80, Polyoxyethylenesorbitan Monooleate]
CC50 at 48 h [1]: 4300 µg/mL (≈ 7.11 mM)

CC(C)(C)CC(C)(C)c1ccc(OCCOCC[N+](C)(C)Cc2ccccc2)cc1 [Benzethonium Chloride]
Lactate Dehydrogenase Release (HuK/F cultures [3]; 0.001 % w/v): 433.5+ U/L
Lactate Dehydrogenase Release (HuK/F cultures [3]; 0.003 % w/v): 1408.0+* U/L
Lactate Dehydrogenase Release (HuK/F cultures [3]; 0.006 % w/v): 1344.0+* U/L
Lactate Dehydrogenase Release (HuK/F cultures [3]; 0.01 % w/v): 1471.5+ U/L
N-Acetylglucosaminidase Release (HuK/F cultures [4]; 0.001 % w/v): 21.20+ U/L
N-Acetylglucosaminidase Release (HuK/F cultures [4]; 0.003 % w/v): 37.63+* U/L
N-Acetylglucosaminidase Release (HuK/F cultures [4]; 0.006 % w/v): 37.10+* U/L
N-Acetylglucosaminidase Release (HuK/F cultures [4]; 0.01 % w/v): 21.73+* U/L

CCCCCCCCCCCC[N+](C)(C)[O-] [C12 DDAO, Dodecyl Dimethyl Amine Oxide]
Lactate Dehydrogenase Release (HuK/F cultures [3]; 0.01 % w/v): 116.0+ U/L
Lactate Dehydrogenase Release (HuK/F cultures [3]; 0.03 % w/v): 1270.0+ U/L
Lactate Dehydrogenase Release (HuK/F cultures [3]; 0.06 % w/v): 1261.5+ U/L
Lactate Dehydrogenase Release (HuK/F cultures [3]; 0.1 % w/v): 1196.0+ U/L
CC50 at 48 h [1]: 180 µg/mL (≈ 0.785 mM)
N-Acetylglucosaminidase Release (HuK/F cultures [4]; 0.01 % w/v): 21.15 U/L
N-Acetylglucosaminidase Release (HuK/F cultures [4]; 0.03 % w/v): 23.53+ U/L
N-Acetylglucosaminidase Release (HuK/F cultures [4]; 0.06 % w/v): 23.33+ U/L
N-Acetylglucosaminidase Release (HuK/F cultures [4]; 0.1 % w/v): 26.90+ U/L

Benzalkonium Chloride
Lactate Dehydrogenase Release (HuK/F cultures [3]; 0.0005 % w/v): 138.5+ U/L
Lactate Dehydrogenase Release (HuK/F cultures [3]; 0.001 % w/v): 1032.0+* U/L
Lactate Dehydrogenase Release (HuK/F cultures [3]; 0.005 % w/v): 1334.5+* U/L
Lactate Dehydrogenase Release (HuK/F cultures [3]; 0.01 % w/v): 1236.5+* U/L
MTT-50 Endpoint (Concentration w/v) (HuK/F cultures [2]; concentration w/v giving 50% decrease in MTT dye uptake vs untreated control, HuK/F, 48 hours): 0.0007%
N-Acetylglucosaminidase Release (HuK/F cultures [4]; 0.0005 % w/v): 14.95+ U/L
N-Acetylglucosaminidase Release (HuK/F cultures [4]; 0.001 % w/v): 18.08+* U/L
N-Acetylglucosaminidase Release (HuK/F cultures [4]; 0.005 % w/v): 19.93+* U/L
N-Acetylglucosaminidase Release (HuK/F cultures [4]; 0.01 % w/v): 11.98+* U/L
